System: Imiquimod-induced psoriasis
Assay: Imiquimod induced psoriasis in mice
Assay type: in vivo, mouse
Details: male C57BL/6 mice, vs vehicle control
Protocol: Imiquimod Induced Psoriasis:
Male C57BL/6 mice of 8-9 week age were used to evaluate the impact of TLR7/8/9 inhibitors on Imiquimod-induced psoriasis. Mice (7 to 10 per group) were randomized into different treatment groups based on body weight. Mice from the respective treatment groups were treated orally, once daily for 6 days with vehicle or test compound. Psoriasis was induced by application of imiquimod cream on the shaved back region of the mice everyday for 6 days. Disease severity was monitored daily by recording of skin thickness, erythema and scaling. A cumulative disease score was also calculated to reflect the impact on the overall severity of inflammation in this model. At the end of experiment, all mice were euthanized by CO2 asphyxiation and skin samples were subjected for histology. At the end of experiment, one way ANOVA with Dunnett's test was performed to calculate the significance of test compound treated group vs. vehicle control group. Overall percent reduction in imiquimod induced psoriasis was calculated for test compound treated group vs vehicle control group.

[1] = 0.1 mg/kg orally once daily for 6 days
[2] = 1 mg/kg orally once daily for 6 days
[3] = 10 mg/kg orally once daily for 6 days
[4] = 30 mg/kg orally once daily for 6 days

COc1ccc(-c2[nH]c3ccc(C4CCN(C(=O)CN(C)C)CC4)cc3c2C(C)C)cc1OC [Example 209, 1-(4-(2-(3,4-dimethoxyphenyl)-3-isopropyl-1H-indol-5-yl)piperidin-1-yl)-2-(dimethylamino)ethan-1-one]
% inhibition Cumulative score [1]: 3%
% inhibition Erythema [1]: 3%
% inhibition Scaling [1]: 13%
% inhibition Skin Thickness [1]: 0%
% inhibition Cumulative score [2]: 27%
% inhibition Erythema [2]: 26%
% inhibition Scaling [2]: 38%
% inhibition Skin Thickness [2]: 18%
% inhibition Cumulative score [3]: 40%
% inhibition Erythema [3]: 41%
% inhibition Scaling [3]: 50%
% inhibition Skin Thickness [3]: 29%
% inhibition Cumulative score [4]: 49%
% inhibition Erythema [4]: 53%
% inhibition Scaling [4]: 63%
% inhibition Skin Thickness [4]: 32%

Reference: US11180474B2 (BRISTOL-MYERS SQUIBB COMPANY, priority 2016, dated 2021)
